Results from ChEMBL document CHEMBL4840312, “Discovery of memantyl urea derivatives as potent soluble epoxide hydrolase inhibitors against lipopolysaccharide-induced sepsis” (Eur J Med Chem, 2021).

Columns and labels:
[1] = target: T1, Bifunctional epoxide hydrolase 2 (Homo sapiens, UniProt P34913)
T1 sequence (P34913 whole entry): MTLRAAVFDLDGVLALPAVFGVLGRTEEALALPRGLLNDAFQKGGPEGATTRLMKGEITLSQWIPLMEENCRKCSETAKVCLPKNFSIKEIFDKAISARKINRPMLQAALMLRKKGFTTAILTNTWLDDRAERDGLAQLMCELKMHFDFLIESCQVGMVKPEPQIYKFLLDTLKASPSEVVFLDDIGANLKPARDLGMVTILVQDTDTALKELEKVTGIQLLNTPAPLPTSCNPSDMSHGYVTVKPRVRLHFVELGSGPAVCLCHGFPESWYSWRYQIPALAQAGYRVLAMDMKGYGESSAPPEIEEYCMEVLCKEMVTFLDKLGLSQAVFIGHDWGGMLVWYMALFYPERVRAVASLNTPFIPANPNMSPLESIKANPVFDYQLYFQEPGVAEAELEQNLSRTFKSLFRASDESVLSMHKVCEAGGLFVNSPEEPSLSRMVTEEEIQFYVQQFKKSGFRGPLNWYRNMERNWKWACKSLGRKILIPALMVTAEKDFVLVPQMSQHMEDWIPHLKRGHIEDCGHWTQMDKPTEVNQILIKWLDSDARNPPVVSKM
Description: Inhibition of human recombinant sEH using PHOME as substrate measured after 10 mins by fluorescent based assay

[2] = target: T2, Bifunctional epoxide hydrolase 2 (Mus musculus, UniProt P34914)
T2 sequence (P34914 whole entry): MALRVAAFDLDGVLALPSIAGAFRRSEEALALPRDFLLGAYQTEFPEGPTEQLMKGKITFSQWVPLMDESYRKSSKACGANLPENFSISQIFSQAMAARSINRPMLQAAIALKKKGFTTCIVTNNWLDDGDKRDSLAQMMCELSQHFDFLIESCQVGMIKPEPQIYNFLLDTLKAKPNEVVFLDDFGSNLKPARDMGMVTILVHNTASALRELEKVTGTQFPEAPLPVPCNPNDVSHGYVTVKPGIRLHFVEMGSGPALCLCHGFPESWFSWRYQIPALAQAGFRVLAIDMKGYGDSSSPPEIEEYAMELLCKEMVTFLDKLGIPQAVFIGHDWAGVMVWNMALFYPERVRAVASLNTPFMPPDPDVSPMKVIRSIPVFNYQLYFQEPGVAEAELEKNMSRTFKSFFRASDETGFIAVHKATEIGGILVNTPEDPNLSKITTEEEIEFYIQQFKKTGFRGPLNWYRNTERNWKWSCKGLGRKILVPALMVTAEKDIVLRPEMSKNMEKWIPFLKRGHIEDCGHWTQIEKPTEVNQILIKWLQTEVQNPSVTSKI
Description: Inhibition of mouse recombinant sEH using PHOME as substrate measured after 10 mins by fluorescent based assay

[3] = Acute toxicity in ICR mouse assessed as body weight at 100 mg/kg, ip administered as single dose observed for 14 days; assay type: organism-based; conditions: in vivo, 336 h, time 14 day
[4] = Reversible toxicity in ICR mouse assessed as eye secretion at 100 mg/kg, ip administered as single dose observed for 14 days; assay type: organism-based; conditions: in vivo, 336 h, time 14 day
[5] = Cmax in Sprague-Dawley rat at 3 mg/kg, iv administered as single dose upto 24 hrs by LC-MS analysis; assay type: ADME, organism-based; design: route intravenous, dose 3 mg/kg, time <=24; conditions: in vivo
[6] = Cmax in Sprague-Dawley rat at 30 mg/kg, po administered as single dose upto 24 hrs by LC-MS analysis; assay type: ADME, organism-based; design: route oral, dose 30 mg/kg, time <=24; conditions: in vivo
[7] = Clearance in Sprague-Dawley rat at 3 mg/kg, iv administered as single dose upto 24 hrs by LC-MS analysis; assay type: ADME, organism-based; conditions: in vivo
[8] = Clearance in Sprague-Dawley rat at 30 mg/kg, po administered as single dose upto 24 hrs by LC-MS analysis; assay type: ADME, organism-based; conditions: in vivo
[9] = Volume of distribution in Sprague-Dawley rat at 3 mg/kg, iv administered as single dose upto 24 hrs by LC-MS analysis; assay type: ADME, organism-based; conditions: in vivo
[10] = Volume of distribution in Sprague-Dawley rat at 30 mg/kg, po administered as single dose upto 24 hrs by LC-MS analysis; assay type: ADME, organism-based; conditions: in vivo
[11] = AUC (0 to 24 hrs) in Sprague-Dawley rat at 3 mg/kg, iv administered as single dose upto 24 hrs by LC-MS analysis; assay type: ADME, organism-based; design: route intravenous, dose 3 mg/kg, time <=24; conditions: in vivo
[12] = AUC (0 to 24 hrs) in Sprague-Dawley rat at 30 mg/kg, po administered as single dose upto 24 hrs by LC-MS analysis; assay type: ADME, organism-based; design: route oral, dose 30 mg/kg, time <=24; conditions: in vivo
[13] = AUC (0 to infinity) in Sprague-Dawley rat at 30 mg/kg, po administered as single dose upto 24 hrs by LC-MS analysis; assay type: ADME, organism-based; design: route oral, dose 30 mg/kg, time <=24; conditions: in vivo
[14] = Microsomal stability in human liver microsomes assessed as substrate remaining in presence of NADPH measured after 5 mins by LC-MS/MS analysis
[15] = Microsomal stability in human liver microsomes assessed as substrate remaining in presence of NADPH measured after 10 mins by LC-MS/MS analysis
[16] = Microsomal stability in human liver microsomes assessed as substrate remaining in presence of NADPH measured after 20 mins by LC-MS/MS analysis
[17] = Microsomal stability in human liver microsomes assessed as substrate remaining in presence of NADPH measured after 30 mins by LC-MS/MS analysis; conditions: 0.5 h
[18] = Microsomal stability in human liver microsomes assessed as substrate remaining in presence of NADPH measured after 60 mins by LC-MS/MS analysis; conditions: 1 h
Mus musculus [19] = test: Effect on C57BL/6 mouse model of LPS induced sepsis assessed as survival rate in 24 hrs at 5 mg/kg, ip (reference value: 71.4%); assay type: functional; conditions: C57BL/6, ip
Mus musculus [20] = test: Effect on C57BL/6 mouse model of LPS induced sepsis assessed as survival rate in 72 hrs at 5 mg/kg, ip (reference value: 28.6%); assay type: functional; conditions: C57BL/6, ip

Row | Structure (SMILES) | IC50 [1] | IC50 [2] | also measured
1 | O=C(Nc1ccc(C(=O)NC2CCCCC2)cc1)NC12CC3CC(CC(O)(C3)C1)C2 | 796 nM | 94.2 nM | 
2 | CC12CC3CC(C)(C1)CC(NC(=O)CCC(=O)N1CCCCC1)(C3)C2 | 2470 nM | 21700 nM | 
3 | CC12CC3CC(C)(C1)CC(NC(=O)CCCC(=O)N1CCCCC1)(C3)C2 | 5930 nM | 5840 nM | 
4 | O=C(Nc1ccc(C(=O)NC2CCCCC2)cc1)NC1C2CC3CC1CC(O)(C3)C2 (centres undefined) | 493 nM | 463 nM | 
5 | CC12CC3CC(C)(C1)CC(NC(=O)Nc1ccc(C(=O)NC4CCCCC4)cc1)(C3)C2 | 2.3 nM | 0.4 nM | Activity [3]: Non-Toxic
6 | CC(C)CNC(=O)c1ccc(NC(=O)NC23CC4CC(C)(CC(C)(C4)C2)C3)cc1 | 0.7 nM | 0.4 nM | Activity [3]: Non-Toxic
7 | CC12CC3CC(C)(C1)CC(NC(=O)CCC(=O)NC1CCCCC1)(C3)C2 | 7890 nM | 180 nM | 
8 | CC(C)CNC(=O)c1ccc(NC(=O)NC2C3CC4CC(C3)CC2C4)cc1 (centres undefined) | 0.9 nM | 0.4 nM | Activity [3]: Non-Toxic; Activity [4]: Toxic
9 | CC(C)CNC(=O)/C=C/C(=O)NC12CC3CC(C)(CC(C)(C3)C1)C2 | 9620 nM | 21100 nM | 
10 | CC12CC3CC(C)(C1)CC(NC(=O)/C=C/C(=O)NC1CCCCC1)(C3)C2 | 24400 nM | 5520 nM | 
11 | CC(C)CNC(=O)CCC(=O)NC(C)C12CC3CC(CC(C3)C1)C2 (centres undefined) | 50.8 nM | 43.5 nM | 
12 | CC(C)CNC(=O)CCCC(=O)NC1C2CC3CC1CC(O)(C3)C2 (centres undefined) | 41.6 nM | 106 nM | 
13 | CC12CC3CC(C)(C1)CC(NC(=O)CCCC(=O)NC1CCCCC1)(C3)C2 | 1590 nM | 8.3 nM | 
14 | CC(C)CNC(=O)c1ccc(NC(=O)NC(C)C23CC4CC(CC(C4)C2)C3)cc1 (centres undefined) | 59.8 nM | 28.8 nM | 
15 | CC(NC(=O)Nc1ccc(C(=O)N2CCCCC2)cc1)C12CC3CC(CC(C3)C1)C2 (centres undefined) | 3.9 nM | 2.4 nM | 
16 | O=C(Nc1ccc(C(=O)N2CCCCC2)cc1)NC12CC3CC(CC(O)(C3)C1)C2 | 120 nM | 88.8 nM | 
17 | O=C(Nc1ccc(C(=O)N2CCCCC2)cc1)NC1C2CC3CC1CC(O)(C3)C2 (centres undefined) | 217 nM | 497 nM | 

Row | Structure (SMILES) | IC50 [1] | IC50 [2] | also measured
18 | CC(NC(=O)Nc1ccc(C(=O)NC2CCCCC2)cc1)C12CC3CC(CC(C3)C1)C2 (centres undefined) | 217 nM | 13.7 nM | 
19 | CC(C)CNC(=O)CCCC(=O)NC1C2CC3CC(C2)CC1C3 (centres undefined) | 3580 nM | 2270 nM | 
20 | CC12CC3CC(C)(C1)CC(NC(=O)c1ccc(C(=O)NC4CCCCC4)cc1)(C3)C2 | 6290 nM | 1020 nM | 
21 | CC(C)CNC(=O)CCCC(=O)NC12CC3CC(C)(CC(C)(C3)C1)C2 | 6230 nM | 225 nM | 
22 | CC12CC3CC(C)(C1)CC(NC(=O)Nc1ccc(C(=O)N4CCCCC4)cc1)(C3)C2 |  |  | Cmax [5]: 3.64 µM; Cmax [6]: 330 nM; CLH [7]: 4.3 L/kg/h; CLH [8]: 269.79 L/kg/h; Vd [9]: 7.83 L/kg; Vd [10]: 1097.8 L/kg; AUC(0-t) [11]: 1.83 µM·h; AUC(0-t) [12]: 1.3 µM·h; AUC [13]: 1.305 µM·h; Activity [4]: Toxic; residual activity [14]: 58.9%; residual activity [15]: 43%; residual activity [16]: 26.4%; residual activity [17]: 17.1%; residual activity [18]: 12.4%
23 | CC12CC3CC(C)(C1)CC(NC(=O)/C=C\C(=O)N1CCCCC1)(C3)C2 | 21500 nM | 81200 nM | 
24 | O=C(Nc1ccc(C(=O)NC2CCCCC2)cc1)NC1C2CC3CC(C2)CC1C3 (centres undefined) | 1.4 nM | 0.4 nM | Activity [4]: Toxic
25 | O=C(Nc1ccc(C(=O)N2CCCCC2)cc1)NC1C2CC3CC(C2)CC1C3 (centres undefined) | 0.4 nM | 0.4 nM | Activity [3]: Non-Toxic
26 | CC(C)CNC(=O)c1ccc(NC(=O)NC23CC4CC(CC(O)(C4)C2)C3)cc1 | 949 nM | 291 nM | 
27 | CC(C)CNC(=O)CCCC(=O)NC(C)C12CC3CC(CC(C3)C1)C2 (centres undefined) | 7320 nM | 694 nM | 
28 | CC(C)CNC(=O)CCC(=O)NC12CC3CC(C)(CC(C)(C3)C1)C2 | 18900 nM | 4130 nM | 
29 | CC(C)CNC(=O)c1ccc(NC(=O)NC2C3CC4CC2CC(O)(C4)C3)cc1 (centres undefined) | 249 nM | 2350 nM | 
30 | CC12CC3CC(C)(C1)CC(NC(=O)c1ccc(C(=O)N4CCCCC4)cc1)(C3)C2 | 26400 nM | 60700 nM | 
31 | CC(C)CNC(=O)c1ccc(C(=O)NC23CC4CC(C)(CC(C)(C4)C2)C3)cc1 | > 100000 nM | 6540 nM | 
32 | CC(=O)N1CCC(NC(=O)NC23CC4CC(CC(C4)C2)C3)CC1 [AR9281] |  |  | Activity [4]: Toxic
33 | C[C@@H]1C[C@H]2[C@@H]3CCC4=CC(=O)C=C[C@]4(C)[C@@]3(F)[C@@H](O)C[C@]2(C)[C@@]1(O)C(=O)CO [DEXAMETHASONE] |  |  | survival at 5 mg/kg (Mus musculus [19]): 100%; survival at 5 mg/kg (Mus musculus [20]): 100%
